Measured values published in patent publication US20220110902A1, “Methods of treating amyloid-beta peptide diseases” (Ecole Polytechnique Federale de Lausanne, priority 2016, published 2022).

What was measured:
CL2122 worms = experiment: Transcript analysis of the MSR in CL2122 control worms; format: in vivo, C. elegans; conditions: CL2122, day 1 of adulthood; dox 15 μg/mL, NR 1 mM, AZD 0.3 μM
Description: C. elegans: A total of ˜3000 worms per condition, divided in 3 biological replicates, was recovered in M9 buffer from NGM plates and lysed in the TriPure RNA reagent. Each experiment was repeated twice. Total RNA was transcribed to cDNA using QuantiTect Reverse Transcription Kit (Qiagen). Expression of selected genes was analyzed using the LightCycler480 system (Roche) and LightCycler® 480 SYBR Green I Master reagent (Roche). For C. elegans, 2 housekeeping genes were used to normalize the expression data, namely actin (act-1) and peroxisomal membrane protein 3 (pmp-3).
atfs-1p::atfs-1 expression vector was created by amplifying 1488 bp sequence upstream from the transcription start site of atfs-1 coding region by using worm genomic DNA for the promoter region. […] The correctness of the atfs-1p::atfs-1 construct was assessed by sequencing with the indicated pPD30.38 and atfs-1 seq. primers. Two independent GMC101 lines (AUW9 and AUW10), and one CL2122 strain (AUW11) carrying atfs-1p::atfs-1 transgene as extrachromosomal array were analyzed in the study. […] The deriving F1 worms were shifted from 20° C. to 25° C. at the L4 stage to induce amyloid accumulation and paralysis, and phenotypes assessed over time as indicated. […]

APP/PSEN1 AD mice = experiment: NR treatment of APP/PSEN1 AD mice: cortex plaques, MSR, Oxphos proteins; format: in vivo, mouse; conditions: NR 400 mg/kg/day for 10 weeks
Description: Young (1 month old) and aged (20-24 months old) C57BL/6JRj mice were purchased from Janvier Labs. APP/PSEN1 mice (Tg(APPswe,PSEN1dE9)85Dbo/Mmjax) were purchased from JAX. C57BL/6JR mice were fed with pellets containing vehicle or NR (400 mg/kg/day) for 6-8 weeks, while APP/PSEN1 mice were fed NR pellets for 10 weeks, starting at the age of 4 months. The pellets were prepared by mixing powdered chow diet (20165, Harlan Laboratories) with water or with NR dissolved in water. Pellets were dried under a laminar flow hood for 48 hours. Mice were housed by groups of 2 to 5 animals per cage and randomized to 7-8 animals per experimental group according to their body weight. No blinding was used during the experiment procedures. Mouse: Total RNA was extracted from tissues using TriPure RNA isolation reagent (Roche) according to the product manual. Expression of selected genes was analyzed using the LightCycler480 system (Roche) and LightCycler® 480 SYBR Green I Master reagent (Roche). The beta-2-Microglobulin B2m gene was used as housekeeping reference. Mouse: Frozen cortex tissue samples were lysed by mechanical homogenization with RIPA buffer containing protease and phosphatase inhibitors, and analyzed by SDS-PAGE and western blot. Subsequently, the concentration of extracted protein was determined by using the Bio-Rad Protein Assay. Proteins were detected using the following antibodies: HSP60 (Enzo Life Science), CLPP (Sigma), anti-GAPDH (14C10) (Cell Signaling), LONP1 (Sigma), PINK1 (Novus Biologicals), LC3 A/B (Cell Signaling), SDHB (Oxphos cocktail, Abcam), MTCO1 (Abcam), Ubiquitin (Enzo), P62 (BD Transduction Laboratories), Phopsho P62 (Cell Signaling), VDAC (Abcam), β-Amyloid, 17-24 (4G8) (BioLegend). In addition to the housekeeping proteins, loading was monitored by Ponceau Red to ensure a homogeneous loading. […] Pixel intensity was quantified by using ImageJ software. […] Quantitative analysis of the immunofluorescence data was carried out by histogram analysis of the fluorescence intensity at each pixel across the images using Image J (Fiji; National Institutes of Health). […]

SMILES	MSR transcripts in control strain (CL2122 worms)	MSR signature in cortex (APP/PSEN1 AD mice)	Oxphos protein levels in cortex (APP/PSEN1 AD mice)	Aβ deposits (plaques) in cortex, Thioflavin S (APP/PSEN1 AD mice; starting at 4 months of age)
O=C(c1cc(Cc2n[nH]c(=O)c3ccccc23)ccc1F)N1CCN(C(=O)C2CC2)CC1 [AZD, Olaparib, reference compound]	induction of the MSR was also consistently observed	–	–	–
NC(=O)c1ccc[n+]([C@@H]2O[C@H](CO)[C@@H](O)[C@H]2O)c1 [NR, Nicotinamide Riboside triflate]	induction of the MSR was also consistently observed	induced	induced	robustly reduced
